Test results taken from patent US6235872A, “Proapoptotic peptides dependence polypeptides and methods of use” (The Burnham Institute, priority 1998, dated 2001).
“Also recorded” adds a separate entry of the source. Where no end group is shown, it is not given here.

What was measured:
isolated mitochondria = experiment: Mitochondrial swelling followed spectrophotometrically at 520 nm (FIG. 3A); assay type: biochemical, rats; conditions: 0.5 mM, positive control
Procedure: Consistent with these observations, molecules such as Bcl-2 which inhibit apoptosis inhibit mitochondrial swelling. Briefly, mitochondria were prepared as previously described (Ellerby et al. J. Neurosci. 17:6165-6178 (1997)) except for the following modifications. The rats were sacrificed by CO2 inhalation without fasting and the mitochondria were isolated in MIB buffer (210 mM mannitol, 70 mM sucrose, 0.05% BSA, 1 mM EGTA, 5 mM Hepes-NaOH, pH 7.4). The mitochondrial pellet samples resuspended in MCB buffer (300 mM mannitol, 10 mM KH2 PO4, 0.1% BSA, pH 7.2) and applied to a discontinuous sucrose gradient (1.6 M sucrose, 10 mM KH2 PO4, pH 7.5; 1.2 M sucrose, 10 mM KH2 PO4, pH 7.5) were centrifuged at 48,500 g for 1 hour. […] The mitochondrial pellets were collected, resuspended in MSB, and stored on ice. After the addition of 50 μM of the peptide, mitochondrial swelling was followed spectrophotometrically at 520 nm (Petronilli et al. J. Biol. Chem. 269:16638-16642 (1994)) in CFS (220 mM mannitol, 68 mM sucrose, 2 mM NaCl, 5 mM KH2 PO4, 2 mM MgCl2, 5 mM succinate, 10 mM Hepes-NaOH, 2 mM ATP, 50 μg/ml creatine kinase, 10 mM phosphocreatine, 0.75 μg/ml rotenone, pH 7.4).

293T cells = experiment: Apoptosis in 293T cells expressing FKBP/p75^NTR chimeras with or without FK1012; assay type: cell-based; conditions: 2 μM FK1012, 35 μM tamoxifen
Source text: The FKBP12-tagging vector MF1E/MF3E, which included an amino-terminal myristylation site for membrane insertion (Spencer et al. Science 262:1019-1024 (1993)), contains one and three repeats of the FK-binding protein (FKBP) sequence. The FKBP12 vector served as a PCR template and was amplified using primers flanked by Nhe I (5' primer) or Nde I (3' primer) sites to produce DNA fragments consisting of one or three FK-binding domains (FKBP). The resulting PCR products contained either one or three FKBP sequence repeats and were subcloned into pcDNA3.1. A DNA fragment encoding an intracytoplasmic form of p75^NTR was removed from the pUC18-p75 plasmid by digestion with Nde I and Bam HI, and the DNA fragment was ligated to the carboxy-terminus of the FKBP sequences within the pcDNA3.1-FKBP construct. The resulting two expression vectors encoded FKBP/p75^NTR chimeras comprising one or three FKBP repeats at the amino-terminus fused to an intracytoplasmic form of p75^NTR at the carboxy-terminus.
The stimulation of cellular apoptosis by Fas and TNFR I is induced by ligand binding which triggers multimerization of Fas and TNFR I. The assembly of such a death-inducing signaling complex contributes to cellular apoptosis by activating caspase-8. The effect that dimerization or multimerization has on the ability of p75^NTR to stimulate apoptosis was analyzed. […]

PC3 = experiment: Cell viability after peptide treatment, PC3; assay type: cell-based, human; conditions: 50 μM stated for tat-GG-SATLDALLAALRRI; 18 hours
Procedure: (§1) Briefly, NTera 2 human neuronal cells, R2 neural cells, CSM14.1 neural cells, LNCaP cells, SH-SY5Y human neuroblastoma cells and PC12 NRA5 cells were grown in DMEM/F12 (50/50) supplemented with 5% fetal bovine serum and seeded onto 96-well plates. […] The purified peptides were dissolved in tissue culture grade water and diluted to 50 μM and 100 μM in serum free medium and directly added to the cells in 96-well plates. The cells were incubated at 37° C. for 18 hours and 20 μM propidium iodide was added. Cell viability was determined using a fluorimeter as previously described (Kane et al. J. Neurosci. Res. 40:269-275 (1995)).

LNCaP cells = experiment: Cell viability after peptide treatment, LNCaP; assay type: cell-based; conditions: 50 μM stated for tat-GG-SATLDALLAALRRI; 18 hours
Procedure: as §1

[1] = system: NTera 2 human neuronal cells; experiment: Cell viability after peptide treatment, NTera 2; assay type: cell-based; conditions: 50 μM stated for tat-GG-SATLDALLAALRRI; 18 hours
Procedure: as §1

PC12 NRA5 cells = conditions: 100 μM peptide; 18 hours
Procedure: Briefly, NTera 2 human neuronal cells, R2 neural cells, CSM14.1 neural cells, LNCaP cells, SH-SY5Y human neuroblastoma cells and PC12 NRA5 cells were grown in DMEM/F12 (50/50) supplemented with 5% fetal bovine serum and seeded onto 96-well plates. The peptides were synthesized and HPLC purified (Coast Scientific, San Diego, Calif.). The purified peptides were dissolved in tissue culture grade water and diluted to 50 μM and 100 μM in serum free medium and directly added to the cells in 96-well plates. The cells were incubated at 37° C. for 18 hours and 20 μM propidium iodide was added. Cell viability was determined using a fluorimeter as previously described (Kane et al. J. Neurosci. Res. 40:269-275 (1995)).

COS-7 = experiment: Cell viability after peptide treatment, COS-7; assay type: cell-based; conditions: 50 μM stated for tat-GG-SATLDALLAALRRI; 18 hours
Procedure: as §1

[2] = system: NTera 2, R2, CSM14.1, LNCaP, SH-SY5Y and PC12 NRA5 cells; experiment: Induction of cell death by peptides added to cells (propidium iodide, Table 1); assay type: cell-based; conditions: peptide 50 μM and 100 μM in serum free medium, 18 hours
Procedure: A region of a dependence polypeptide that mediates apoptosis in cells was analyzed for its ability to stimulate apoptosis in cells. […] The effect of replacing leucine with lysine at position 7 (purple, […]; SEQ ID NO:41; tat-purple, tat-GG-[…]; SEQ ID NO:42), removing the carboxy-terminal "RRI" sequence (gray, SATLDALLAAL; SEQ ID NO:43; tat-gray, tat-GG--SATLDALLAAL; SEQ ID NO:44) or amino-terminal "SATLD" sequence (green; […]; SEQ ID NO:45) on the proapoptotic activity of a dependence peptide was examined. […] The 12 amino acid HIV tat protein fragment ([…]; SEQ ID NO:52; hereinafter termed "tat"), which facilitates cellular entry, also was included on the amino terminus of some of the peptides tested. […] For convenience, the hyphen in the above amino acid sequences is a nomenclature intended to set apart the proapoptotic dependence peptides and variants thereof or control peptides from other amino acid residues contained in the peptide.

[3] = system: SH-SY5Y human neuroblastoma cells; experiment: Cell death by tat-linked peptides and mutated variants in SH-SY5Y cells (FIG. 2); assay type: cell-based; conditions: relative to unmutated tat-GG-SATLDALLAALRRI
Procedure: To further analyze the effect of particular point mutations on apoptosis, additional studies employing dependence peptides and mutated variants linked to tat were performed in SH-SY5Y cells. The results shown in FIG. 2 are of studies in which quadruplicate samples were averaged, and the studies were repeated 2 to 10 times for each peptide. Each column represents the percentage cell death and the bars indicate the standard error. The amount of peptide added to the cells is indicated above each column.

Molecule	cell viability, PC3 (PC3) [%]	cell viability, LNCaP (LNCaP cells) [%]	cell viability, NTera 2 [1] [%]	cell viability, COS-7 (COS-7) [%]	also measured
[Ca+2].[Cl-].[Cl-] [calcium chloride]					mitochondrial swelling (decreased absorbance at 520 nm) (isolated mitochondria): rapid swelling
FK1012					apoptosis of cells containing single copy or triple copy FKBP/p75^NTR protein chimera (293T cells): apoptosis was blocked
GRKKRRQRRRPPGGDLSLARLATARLAI [tat-yellow, reference compound]	97				
GRKKRRQRRRPPGGKDRNLRRITRMVLV [tat-turquoise, reference compound]	87.9	46.7	67.6		cell viability, NRA 5 cells (PC12 NRA5 cells): 95.7%
GRKKRRQRRRPPGGSATLDAKLAALRRI [tat-purple]	92.8		69.3	97.8	
GRKKRRQRRRPPGGSATLDALLAAL [tat-gray, tat-GG-SATLDALLAAL]	90.5	59.1	76.7	97.1	
GRKKRRQRRRPPGGSATLDALLAALRRI [tat-blue]	4.2	0	1.3	1.5	cell viability, NRA 5 cells (PC12 NRA5 cells): 0%
INLKALAALAKKIL [MP]					Effect on apoptosis [2]: underwent apoptosis; also recorded: Apoptotic
tat-GG-SATLDALLAALOOI (GRKKRRQRRRPPGGSATLDALLAALQQI) [arginines at positions 12 and 13 replaced with glutamine]					decrease of the ability to stimulate SH-SY5Y cell death [3]: 80%
